Here are results for ten compounds from ChEMBL document CHEMBL1128875, “Synthesis and biological activity of Para-substituted 3-phenyl docetaxel analogs” (Bioorg Med Chem Lett, 1995).

In brackets after ≈: the same amount, converted by molar mass.

The species entered for data set [1] is Mus musculus. Kind of data set: Ratio of median tumor weight of the treated mice /control mice. It counts as functional.
Data set [2] deals with Tubulin alpha chain (Sus scrofa) (UniProt P02550). Kind of data set: Tested for 50% inhibition of the rate of microtubule disassembly to that paclitaxel. It counts as functional.
A further data set has as its system P388. Put plainly: In vitro cytotoxicity against murine P388 lymphocytic leukemia cells. The conditions noted are these: Mus musculus. The class given is functional, cell-based.
Data set [3] concerns Mus musculus. Put plainly: In vivo antitumor activity against B16 melanoma cells in mice. It counts as functional.
The species named for data set [4] is Mus musculus. Put plainly: Ratio of median tumor weight of the treated mice /control mice; non evaluable: immediate death after injection (insoluble compound). The class given is ADME, organism-based. The conditions noted are these: in vivo.
Data set [5] is filed under the species Mus musculus. Put plainly: Ratio of median tumor weight of the treated mice /control mice; non evaluable: delayed toxicity. The class given is organism-based. The conditions noted are these: in vivo.

Chain of Tubulin alpha chain (Sus scrofa) (P02550 whole entry, looked up): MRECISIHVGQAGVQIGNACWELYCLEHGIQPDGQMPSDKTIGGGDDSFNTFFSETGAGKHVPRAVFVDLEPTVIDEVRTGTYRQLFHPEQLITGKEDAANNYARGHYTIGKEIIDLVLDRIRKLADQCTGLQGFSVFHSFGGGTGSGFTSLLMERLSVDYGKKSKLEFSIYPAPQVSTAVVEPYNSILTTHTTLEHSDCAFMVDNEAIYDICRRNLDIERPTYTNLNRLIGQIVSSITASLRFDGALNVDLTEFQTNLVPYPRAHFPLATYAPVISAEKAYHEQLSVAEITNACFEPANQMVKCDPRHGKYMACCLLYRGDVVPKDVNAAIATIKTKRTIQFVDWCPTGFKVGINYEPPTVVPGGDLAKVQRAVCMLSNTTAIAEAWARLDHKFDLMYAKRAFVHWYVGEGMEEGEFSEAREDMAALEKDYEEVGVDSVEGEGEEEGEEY

Consider `CC(=O)O[C@@]12CO[C@@H]1C[C@H](O)[C@@]1(C)C(=O)[C@H](O)C3=C(C)[C@@H](OC(=O)[C@H](O)[C@@H](NC(=O)OC(C)(C)C)c4ccc(C)cc4)C[C@@](O)([C@@H](OC(=O)c4ccccc4)[C@H]21)C3(C)C`, for which the T/C in the data set listed under Mus musculus [1] is listed as 8%. Further, the IC50 ratio in data set [2] is 1.3. The compound also displayed a concentration for half-maximal inhibition (IC50) in the data set on P388 of 0.04 µg/mL (≈ 0.0487 µM). The same compound displayed a Max tolerated dose in the data set on Mus musculus [3] of 15.5 mg/kg/day.

In the case of `CC(=O)O[C@@]12CO[C@@H]1C[C@H](O)[C@@]1(C)C(=O)[C@H](O)C3=C(C)[C@@H](OC(=O)[C@H](O)[C@@H](NC(=O)OC(C)(C)C)c4ccc(-c5ccccc5)cc4)C[C@@](O)([C@@H](OC(=O)c4ccccc4)[C@H]21)C3(C)C`, the T/C in the data set filed under Mus musculus [1] amounted to 40%. For the same compound, the IC50 ratio in data set [2] amounted to 2. This compound also yielded a concentration for half-maximal inhibition (IC50) in the data set with P388 of 0.65 µg/mL (≈ 0.735 µM). In the data set with Mus musculus [3], this compound yielded a Max tolerated dose of 35 mg/kg/day.

On to `C=C(C)c1ccc([C@H](NC(=O)OC(C)(C)C)[C@@H](O)C(=O)O[C@H]2C[C@@]3(O)[C@@H](OC(=O)c4ccccc4)[C@@H]4[C@]5(OC(C)=O)CO[C@@H]5C[C@H](O)[C@@]4(C)C(=O)[C@H](O)C(=C2C)C3(C)C)cc1`, for which the T/C in the data set filed under Mus musculus [1] worked out at 105%. In addition, in data set [2], the IC50 ratio turned out to be 1.8. In addition, the IC50 in the data set with P388 is 0.35 µg/mL (≈ 0.413 µM). In the data set with Mus musculus [3], this compound returned a Max tolerated dose of 20 mg/kg/day.

Consider `CC(=O)O[C@@]12CO[C@@H]1C[C@H](O)[C@@]1(C)C(=O)[C@H](O)C3=C(C)[C@@H](OC(=O)[C@H](O)[C@@H](NC(=O)OC(C)(C)C)c4ccc(C=O)cc4)C[C@@](O)([C@@H](OC(=O)c4ccccc4)[C@H]21)C3(C)C`, for which the IC50 ratio in data set [2] came out at 0.75. For the same compound, in the data set listed under Mus musculus [4], the T/C entry is “non evaluable: immediate death after injection (insoluble compound)”. For the same compound, inhibition in the data set with P388 was half-maximal at 0.13 µg/mL (≈ 0.156 µM) (IC50). In the data set on Mus musculus [3], this compound registered a Max tolerated dose of less than 13.4 mg/kg/day.

With `C#Cc1ccc([C@H](NC(=O)OC(C)(C)C)[C@@H](O)C(=O)O[C@H]2C[C@@]3(O)[C@@H](OC(=O)c4ccccc4)[C@@H]4[C@]5(OC(C)=O)CO[C@@H]5C[C@H](O)[C@@]4(C)C(=O)[C@H](O)C(=C2C)C3(C)C)cc1`, in the data set filed under Mus musculus [1], the T/C was 15%. In addition, in data set [2], the IC50 ratio is 0.6. Also, the IC50 in the data set with P388 worked out at 0.085 µg/mL (≈ 0.102 µM). The same compound registered a Max tolerated dose in the data set on Mus musculus [3] of 21.7 mg/kg/day.

For `CC(=O)O[C@@]12CO[C@@H]1C[C@H](O)[C@@]1(C)C(=O)[C@H](O)C3=C(C)[C@@H](OC(=O)[C@H](O)[C@@H](NC(=O)OC(C)(C)C)c4ccc(C(C)=O)cc4)C[C@@](O)([C@@H](OC(=O)c4ccccc4)[C@H]21)C3(C)C`, the T/C in the data set listed under Mus musculus [1] is 10%. Besides, in data set [2], the IC50 ratio is 0.95. Half-maximal inhibition in the data set on P388 (IC50) was put at 0.19 µg/mL (≈ 0.224 µM). In the data set with Mus musculus [3], this compound had a Max tolerated dose of 35.3 mg/kg/day.

For `C=Cc1ccc([C@H](NC(=O)OC(C)(C)C)[C@@H](O)C(=O)O[C@H]2C[C@@]3(O)[C@@H](OC(=O)c4ccccc4)[C@@H]4[C@]5(OC(C)=O)CO[C@@H]5C[C@H](O)[C@@]4(C)C(=O)[C@H](O)C(=C2C)C3(C)C)cc1`, in the data set listed under Mus musculus [1], the T/C is recorded as 19%. Further, the IC50 ratio in data set [2] is 0.7. Further, the IC50 with P388 was 0.06 µg/mL (≈ 0.0719 µM). The compound also had a Max tolerated dose in the data set on Mus musculus [3] of 38.3 mg/kg/day.

As for `CC(=O)O[C@@]12CO[C@@H]1C[C@H](O)[C@@]1(C)C(=O)[C@H](O)C3=C(C)[C@@H](OC(=O)[C@H](O)[C@@H](NC(=O)OC(C)(C)C)c4ccc(C(=O)c5ccccc5)cc4)C[C@@](O)([C@@H](OC(=O)c4ccccc4)[C@H]21)C3(C)C`, the T/C in the data set listed under Mus musculus [1] was determined as 95%. The IC50 ratio in data set [2] came out at 20. In the data set with P388, this compound displayed an IC50 greater than 1 µg/mL. Also, the Max tolerated dose with Mus musculus [3] came to 20 mg/kg/day.

For the compound `CC(=O)O[C@@]12CO[C@@H]1C[C@H](O)[C@@]1(C)C(=O)[C@H](O)C3=C(C)[C@@H](OC(=O)[C@H](O)[C@@H](NC(=O)OC(C)(C)C)c4ccc(CO)cc4)C[C@@](O)([C@@H](OC(=O)c4ccccc4)[C@H]21)C3(C)C`, the T/C result in the data set listed under Mus musculus [5] was “non evaluable: delayed toxicity”. Also, the IC50 ratio in data set [2] came out at 0.4. This compound showed an IC50 with P388 of 0.06 µg/mL (≈ 0.0716 µM). Besides, in the data set with Mus musculus [3], the Max tolerated dose is less than 4.8 mg/kg/day.

With `CC(=O)O[C@@]12CO[C@@H]1C[C@H](O)[C@@]1(C)C(=O)[C@H](O)C3=C(C)[C@@H](OC(=O)[C@H](O)[C@@H](NC(=O)OC(C)(C)C)c4ccccc4)C[C@@](O)([C@@H](OC(=O)c4ccccc4)[C@H]21)C3(C)C.O.O.O` [DOCETAXEL], the T/C in the data set filed under Mus musculus [1] was 0%. For the same compound, in data set [2], the IC50 ratio was 0.64. In the data set with P388, the midpoint of inhibition, the IC50, lay at 0.04 µg/mL. The same compound registered a Max tolerated dose with Mus musculus [3] of 13.4 mg/kg/day.
